Read-outs that look alike come from different tables or passages of the source.
Key:
[1] = Chemical stability in water (10 mM) at 60 °C by HPLC; type: physicochemical; settings: for Chemical stability, Initial (%): HPLC AUC, 0 h set to 100%; for Chemical stability, 24 h / Chemical stability, 48 h / Chemical stability, 76 h / Chemical stability, 164 h / Chemical stability, 330 h: storage at 60 °C, HPLC
Description: For this purpose, high-performance liquid chromatography (HPLC) was employed to measure any changes in these species upon storage at 60 °C (Table 1).

BACE-1 = target: T1, BACE-1 (Homo sapiens, UniProt P56817); assay: BACE-1 FRET inhibition assay; type: biochemical
T1 construct: purchased PanVera Corp. / Thermo Fisher Scientific P2985
Description: A BACE-1 inhibition assay was performed using a β-Secretase FRET kit (BACE-1, Thermo Fisher Scientific, San Diego, CA, USA) following the manufacturer’s instructions. […] In black 96-well microplates, 10 µL of the BACE-1 substrate was added to the diluted samples. The reaction was initiated by adding 10 µL of 3× BACE-1 enzyme to each well. The plates were incubated for 60 min at RT in the dark. After incubation, the reaction was stopped by adding 10 µL of 2.5 mM sodium acetate to each well. […] The IC50 value was determined by plotting the relative fluorescence units per hour (RFU/h) against the logarithmic inhibitor concentrations. All experiments were conducted in triplicate.

[2] = tested on: phosphorylated tau (P-tau); assay: P-tau level ELISA in SH-SY5Y cells; settings: Homo sapiens, 24 h, read-out: P-tau inhibition
Description: SH-SY5Y cells were grown in a complete growth medium comprising Dulbecco’s Modified Eagle Medium (DMEM) supplemented with 10% fetal bovine serum (FBS) and 1% penicillin/streptomycin. For treatment, adherent SH-SY5Y cells were plated in 96-well plates at a density of 2 × 10^6 cells per well. Levosimendan (Sigma, St. Louis, MO, USA) was used as an inhibitor to verify the effect on tau inhibition. Upon treatment with 20 μM of each substance, the cells were cultured for 24 h. The supernatant was then collected and used in subsequent ELISA assays.
The tau levels were assessed using a Human Tau ELISA kit (Abcam, Cambridge, UK). After treatment, the supernatant was diluted five times. The diluted supernatant, capture antibody, and detection antibody were mixed in a 2:1:1 ratio and incubated for 1 h. The wells were then washed three times with a wash buffer. After removing the buffer, 100 µL of 3,3′,5,5′-tetramethylbenzidine developer was added and incubated for 10 min, followed by the addition of 100 µL stop solution. The optical density was measured at 450 nm. Data analysis was performed by calculating the mean and standard deviation using GraphPad Prism 8 (GraphPad, San Diego, CA, USA).

[3] = DPPH radical scavenging assay; type: biochemical; settings: methanol, 30 min, RT, dark
Description: The mixture was then kept in the dark at RT for 30 min. Afterward, the absorbance was measured at 540 nm.

NLRP3 = NLRP3 ELISA in LPS-induced RAW264.7 cells; type: cell-based, murine; settings: 25 µM (method: 20 µM), LPS 0.5 µg/mL, 24 h
Excerpt: The induced cytokines further contribute to AD pathology by hyperphosphorylation of the tau protein [19]. Additionally, the activation of NLRP3 has been implicated in the pathogenesis of AD [20, 21], and this inflammatory response fosters the generation of Aβ and tau, ultimately contributing to disease progression. Thus, to determine the anti-inflammatory activities of the prepared derivatives, we measured the inhibition of nitrogen oxide (NO) and NLRP3 in LPS-induced RAW264.7 cells. The active concentration for activity assessment was established as 25 µM, at which cell viability had been previously confirmed.
RAW 264.7 macrophages were seeded at a density of 5 × 10^5 cells/well in 96-well plates and treated with 20 µM of RA-Hyd-Me, RA-Hyd-Me-tol, RA-Benzo, and RA-Sali for 1 h and then stimulated with 0.5 μg/mL LPS for 24 h. Culture supernatant levels of NOD-like receptor pyrine domain containing-3 (NLRP3) were determined using a commercially available ELISA kit (Lsbio, Seattle, WA, USA) and following the instructions of the manufacturer. The absorbance of the plate was read at a wavelength of 450 nm. NLRP3 was determined from a standard curve. The concentrations were expressed as ng/mL. To obtain statistical significance, all experiments were carried out in duplicate.

[4] = target: T2, acetylcholinesterase (AChE) (Electrophorus electricus, UniProt O42275); assay: biochemical
T2 construct: purchased Sigma-Aldrich C3389

[5] = Stability of Ramalin in water vs deoxygenated water (10 mM, 48 h, 25 °C); type: physicochemical
Excerpt: This is evidenced by the increased stability when dissolved in deoxygenated water compared to water containing dissolved oxygen. […] We attempted modifications by introducing a methyl group into phenyl hydrazine to prevent conversion into the azo form or by linking the phenyl group to a benzophenone structure to block electron flow and mitigate oxidation, thereby enhancing stability.

[6] = FRET kit, 60 min, RT, triplicate, read-out: BACE-1 IC50

T1 sequence (P56817 46-501): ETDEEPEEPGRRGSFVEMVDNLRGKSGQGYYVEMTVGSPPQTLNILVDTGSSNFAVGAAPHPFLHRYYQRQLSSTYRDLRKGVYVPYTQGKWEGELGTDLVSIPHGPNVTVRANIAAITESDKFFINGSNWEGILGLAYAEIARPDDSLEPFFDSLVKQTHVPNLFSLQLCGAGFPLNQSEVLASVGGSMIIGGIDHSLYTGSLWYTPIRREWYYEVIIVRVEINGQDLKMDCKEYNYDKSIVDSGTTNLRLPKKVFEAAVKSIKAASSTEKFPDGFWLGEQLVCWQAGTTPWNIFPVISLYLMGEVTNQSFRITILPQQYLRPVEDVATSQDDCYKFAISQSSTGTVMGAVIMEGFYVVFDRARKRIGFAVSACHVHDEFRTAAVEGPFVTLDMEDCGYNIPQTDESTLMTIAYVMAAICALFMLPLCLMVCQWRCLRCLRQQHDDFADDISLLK
T2 sequence (O42275 24-633): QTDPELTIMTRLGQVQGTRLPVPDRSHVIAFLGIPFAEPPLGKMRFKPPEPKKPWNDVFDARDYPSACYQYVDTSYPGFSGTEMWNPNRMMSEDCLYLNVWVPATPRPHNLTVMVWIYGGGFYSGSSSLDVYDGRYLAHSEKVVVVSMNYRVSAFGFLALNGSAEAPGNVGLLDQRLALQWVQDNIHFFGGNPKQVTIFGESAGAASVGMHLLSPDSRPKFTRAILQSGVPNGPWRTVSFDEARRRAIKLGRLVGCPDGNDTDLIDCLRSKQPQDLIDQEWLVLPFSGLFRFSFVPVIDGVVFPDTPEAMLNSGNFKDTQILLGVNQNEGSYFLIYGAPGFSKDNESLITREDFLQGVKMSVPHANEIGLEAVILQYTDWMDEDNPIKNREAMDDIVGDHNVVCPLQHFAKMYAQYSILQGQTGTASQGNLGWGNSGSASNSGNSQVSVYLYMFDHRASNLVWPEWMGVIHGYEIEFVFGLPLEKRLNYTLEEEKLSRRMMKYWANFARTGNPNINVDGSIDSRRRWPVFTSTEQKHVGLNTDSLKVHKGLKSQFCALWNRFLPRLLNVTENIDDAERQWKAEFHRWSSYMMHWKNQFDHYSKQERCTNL

SMILES	Chemical stability, Initial (%) [1]	Chemical stability, 24 h [1]	Chemical stability, 48 h [1] [%]	Chemical stability, 76 h [1] [%]	Chemical stability, 164 h [1] [%]	Chemical stability, 330 h [1] [%]	IC50 (BACE-1; [6]) [µM]	inhibition at 20 µM [2] [%]	IC50 [3] [µM]	IC50 (BACE-1) [µM]	NLRP3 inhibitory activity (NLRP3)	inhibition at 50 µM [4] [%]	Ramalin remained in deoxygenated water ([5]; deoxygenated water) [%]	Ramalin remained in regular water ([5]; regular water)
Cl.N[C@@H](CCC(=O)NNC(=O)c1ccccc1)C(=O)O [RA-Benzo, N^5-benzamido-L-glutamine hydrochloride]	100%	97.2%	94.4	91.5	82.5	68.0	144 ± 87.1	10 to 15						
CN(NC(=O)CC[C@H](N)C(=O)O)c1ccccc1 [RA-Hyd-Me, N^5-(methyl(phenyl)amino)-L-glutamine]	100%	97.5%	94.5	91.1	80.3	65.4		10 to 15	14.4	15.5 ± 5.8				
Cc1cccc(N(C)NC(=O)CC[C@H](N)C(=O)O)c1 [RA-Hyd-Me-Tol, N^5-(methyl(m-tolyl)amino)-L-glutamine]	100%	97.5%	94.6	91.0	80.0	63.4	22.5 ± 1.76	10 to 15	12.4					
Cl.N[C@@H](CCC(=O)NNC(=O)c1ccccc1O)C(=O)O [RA-Sali, N^5-(2-hydroxybenzamido)-L-glutamine hydrochloride]	100%	99.6%	96.7	93.3	82.6	69.1	8.44 ± 5.16	~40			~ 25%	7.8		
N[C@@H](CCC(=O)NNc1ccccc1O)C(=O)O [Ramalin, reference compound]	100% ^1	35.1% ^2	17.1	7.6									92	about 53%
